{"source": "patent US9844563B2", "about": "“Compositions, kits, and methods to induce acquired cytoresistance using stress protein inducers” (FRED HUTCHINSON CANCER RESEARCH CENTER, priority 2014, dated 2017)", "key": {"HO-1": {"test_system": "HO-1", "test": "Renal cortical HO-1 mRNA (RT-PCR) and protein (ELISA) after N-Mgb, SnPP or both", "format": "in vivo, mice", "experimental": "(§1) Thirty-two mice were divided into 4 equal groups: (1) control mice; (2) mice treated with 1 mg of N-Mgb injection (as a bolus through the tail vein); (3) mice treated with […] of SnPP (via tail vein); and (4) mice treated with combined N-Mgb 1 SnPP. After either 4 hours (n=16) or 18 hours (n=16), the mice were deeply anesthetized with pentobarbital (50 mg/kg), the abdomen was opened through a midline abdominal incision, and the kidneys were removed. To determine potential effects on extrarenal organs, a liver lobe and the heart were also removed. The tissues were iced and then extracted for protein and RNA (RNeasy Plus Mini; Qiagen, Valencia, Calif.) and subjected to enzyme linked immunosorbent assay (ELISA) and reverse transcriptase polymerase chain reaction (RT-PCR) for HO-1, haptoglobin, and IL-10 protein and messenger RNAs (mRNAs). Zager et al. J Am Soc Nephrol 2014;25:998-1012; Zager et al. Am J Physiol 2012;303:F139-48. As an assessment of renal function, control mice and the 18 hour after N-Mgb+SnPP—treated mice had blood urea nitrogen (BUN) and plasma creatinine levels measured. Additionally, transverse 10% formalin fixed kidney sections ([…]) were cut and stained with hematoxylin and eosin (H&E) and periodic acid Schiff (PAS) to further assess potential injury."}, "[1]": {"test_system": "Mgb-exposed cultured proximal tubule (HK-2) cells", "conditions": "Zager & Burkhart, Kidney Int 1997; cited from earlier work"}, "[2]": {"test": "Glycerol model of rhabdomyolysis-induced AKI", "format": "in vivo, mice", "conditions": "IV pretreatment 18 hours before glycerol; 18 hours after glycerol", "experimental": "Assessments of cytoresistance. Glycerol model of rhabdomyolysis-induced AKI. Twenty mice were divided into 4 equal groups (controls, mice treated with N-Mgb, SnPP, and mice treated with N-Mgb+SnPP tail vein injections) as described previously. 18 hours later, the mice were briefly anesthetized with isoflurane and immediately injected with 9 mL/kg of 50% glycerol, administered in equally divided doses into each hind limb. At 18 hours after glycerol injection, the mice were anesthetized with pentobarbital, the abdomen was opened, a blood sample for BUN and creatinine assessments was obtained from the vena cava, and the kidneys were resected. The control post-glycerol group and the N-Mgb+SnPP—pretreated glycerol group had kidney sections stained with H&E.\nCalculations and statistics. All values are given as the mean […] standard error of the mean. Statistical comparisons were made by unpaired Student's t test. If multiple comparisons were made, the Bonferroni correction was applied. The severity of renal histologic injury in the glycerol AKI model was graded on a […] (least to most severe tubular necrosis and cast formation observed). The histologic results were compared by Wlcoxon rank sum test. Statistical significance was taken as a P value of <0.05."}, "IL-10": {"test_system": "IL-10", "test": "Liver IL-10 mRNA and protein after N-Mgb, SnPP or both", "format": "in vivo, mice", "conditions": "18 h after Rx treatment", "experimental": "as §1"}, "[3]": {"conditions": "Agarwal et al., Kidney Int. 1995; cited from earlier work"}}, "data": [{"smiles": "C=Cc1c2[n-]c(c1C)/C=c1\\[n-]/c(c(C)c1C=C)=C\\c1[n-]c(c(CCC(=O)O)c1C)C=c1[n-]/c(c(C)c1CCC(=O)O)=C\\2.[Sn+4]", "note": "[SnPP, Sn-protoporphyrin, reference compound]", "values": [{"measurement": "increase in renal HO-1 mRNA", "setting": "HO-1; 4 hours after IV injection, vs controls", "value": "only modest increases"}, {"measurement": "increase in renal HO-1 protein", "setting": "HO-1; 18 hours post-treatment, vs control values", "value": "only relatively small HO-1 protein increases"}, {"measurement": "reduction of Mgb toxicity by SnPP addition", "setting": "[1]", "value": "≤ 85", "unit": "%"}, {"measurement": "protection against glycerol-induced AKI (BUN/creatinine levels)", "setting": "[2]", "value": "virtually no effect"}, {"measurement": "Liver mRNA IL-10", "setting": "IL-10", "value": "0.05 ± 0.01"}, {"measurement": "effect of pretreatment on renal injury", "setting": "[3]", "value": "exacerbated renal injury"}]}]}
